# Entries after “also recorded” stand apart in the source; their conditions may differ. Where two headings read alike, the source gives them in different places.
# Experiments:
# [1] = tested on: mice; experiment: Constipation assay (fecal pellets over 6 hours); settings: i.p.; morphine 10 mg/kg, dexmedetomidine 30 μg/kg, ‘9087 5 mg/kg; versus vehicle
# [2] = target: α2AAR-Y431^7.43A/F (Homo sapiens, UniProt P08913, Y431A); experiment: Gi activation (BRET) at α2AAR Y431^7.43 mutants; assay type: cell-based
# Experimental: Investigating the sensitivity of selected ligands to the receptor mutants α2AAR-D128^3.32A, α2AAR-D128^3.32T, α2AAR-D128^3.32L, α2AAR-S215^5.42A, α2AAR-Y409^6.55A, α2AAR-Y409^6.55T, α2AAR-Y409^6.55F, α2AAR-F427^7.39F, α2AAR-Y431^7.43A, and α2AAR-Y431^7.43F was determined by monitored G protein stimulation as described above transfecting the appropriate receptor together with Gαi1-RLucII and Gβ1/Gγ1-GFP10. […] Three to ten experiments were done in duplicate.
# The sensitivity of selected ligands to the receptor mutants α2AAR-D128^3.32A, α2AAR-D128^3.32T, α2AAR-D128^3.32L, α2AAR-S215^5.42A, α2AAR-Y409^6.55A, α2AAR-Y409^6.55T, α2AAR-Y409^6.55F, α2AAR-F427^7.39F, α2AAR-Y431^7.43A, and α2AAR-Y431^7.43F was monitored by G protein activation as described above transfecting the appropriate receptor together with Gαi1-RLucII and Gβ1/Gγ2-GFP10. […] Similarly, the effect of the α2AAR-D128^3.32A, α2AAR-S215^5.42A, α2AAR-Y409^6.55A, α2AAR-Y409^6.55F, α2AAR-F427^7.39F, α2AAR-Y431^7.43A, and α2AAR-Y431^7.43F mutations on arrestin recruitment was evaluated as described above transfecting the appropriate receptor together with CAAX-rGFP, GRK2 and β-arrestin-2-RLucII. Data was analyzed as ligand induced changes in BRET compared to vehicle (deltaBRET). Three to seven experiments were done in duplicate.
# [3] = Pharmacokinetics in mice (plasma, brain, CSF); assay type: in vivo
# Experimental: Pharmacokinetics. Pharmacokinetic experiments were performed by Bienta (Enamine Biology Services) in accordance with Enamine pharmacokinetic study protocols and Institutional Animal Care and Use Guidelines (protocol number 1-2/2020). […] In each compound study, nine time points (5, 15, 30, 60, 120, 240, 360, 480 and 1440 min) were collected, each of the time point treatment group included 3 animals. There was also a control group of one animal. In the ‘9087, ‘7075, ‘4622 studies, male C57BL/6N mice were used, for PS75 CD-1 mice, and for ‘2998 male Balb/cAnN mice. For all compound studies the animals were randomly assigned to the treatment groups before the pharmacokinetic study; all animals were fasted for 4 h before dosing. For injections, ‘9087 was dissolved in Captisol—water (40%:60%, w/v), ‘4622 was dissolved in a 20% Kolliphor HS—physiological saline solution, and ‘7075, PS75, and ‘2998 were dissolved in a 20% 2-HPBCD—aqueous solution. The batches of working formulations were prepared 10 minutes prior to the in vivo study.
# (§1) Mice were injected i.p. with 2,2,2-tribromoethanol at 150 mg/kg prior to drawing CSF and blood. CSF was collected under a stereomicroscope from cisterna magna using 1 mL syringes. Blood collection was performed from the orbital sinus in microtainers containing K3EDTA. Animals were sacrificed by cervical dislocation after the blood samples collection. Blood samples were centrifuged 10 min at 3000 rpm. Brain samples (right lobe) were weighed and transferred into 1.5 ml tubes. All samples were immediately processed, flash-frozen and stored at −70° C. until subsequent analysis.
# Plasma samples (40 μL) were mixed with 200 μL of internal standard (IS) solution. After mixing by pipetting and centrifuging for 4 min at 6000 rpm, 4 μL of each supernatant was injected into the LC-MS/MS system. Solutions of internal standards were used to quantify compounds in the plasma samples. […] After this, the samples were centrifuged for 4 min at 14,000 rpm, and supernatant was injected into LC-MS/MS system. CSF samples (2 μL) were mixed with 40 μL of an internal stock solution. After mixing by pipetting and centrifuging for 4 min at 6,000 rpm, 5 μL of each supernatant was injected into LC-MS/MS system.
# (§2) Analyses of plasma, brain and CSF samples were conducted at Enamine/Bienta. The concentrations of compounds in plasma and brain samples were determined using high performance liquid chromatography/tandem mass spectrometry (HPLC-MS/MS). Data acquisition and system control was performed using Analyst 1.5.2 software (AB Sciex, Canada). […] Pharmacokinetic data analysis was performed using noncompartmental, bolus injection or extravascular input analysis models in WinNonlin 5.2 (PharSight).
# as §1, with “mL” for “ml”
# as §2
# Additional pharmacokinetic experiments were performed by Sai Life Sciences (Hyderabad, India) in accordance with the Sai Study Protocol SAIDMPK/PK-22-04-0340. […] Testing was done in C57BL/6 mice.
# [4] = tested on: mice; experiment: Rotarod motor test (motor impairment and sedation); assay type: in vivo; settings: 60 μg/kg
# [5] = Body weight measurement over 48 hours; assay type: in vivo, mice; settings: ‘9087 5, 10 or 20 mg/kg; dexmedetomidine 30 μg/kg
# [6] = target: T1, human α2AAR (Homo sapiens (Human), UniProt P08913); experiment: Radioligand competition binding to human α2AAR (HEK293T membranes, [3H]RX82,1002); settings: human α2AAR; mean ± s.e.m.; read-out: Ki for α2AAR
# [7] = tested on: imidazoline-2 receptor (I2R); experiment: I2R binding (Eurofins Cerep); settings: tested at 500 nM
# [8] = tested on: SNI mice; experiment: Spared-nerve injury (SNI) model of neuropathic pain, von Frey mechanical thresholds; assay type: in vivo
# Experimental: Spared-nerve injury (SNI) model of neuropathic pain. Under isoflurane anesthesia, two of the three branches of the sciatic nerve were ligated and transected distally, leaving the sural nerve intact. Behavior was tested 7 to 14 days after injury and in situ hybridization was performed one week post-injury.
# [9] = tested on: CFA mice; experiment: Complete Freund's Adjuvant (CFA) inflammatory pain model, Hargreaves test; settings: mouse, in vivo
# Experimental: The CFA model of chronic inflammation was induced as described previously (96). Briefly, CFA (Sigma) was diluted 1:1 with saline and vortexed for 30 minutes. When fully suspended, we injected 20 μL of CFA into one hindpaw. Heat thresholds were measured before the injection (baseline) and 3 days after using the Hargreaves test.
# The CFA model of chronic inflammation was induced as described previously (100). Briefly, CFA (Sigma) was diluted 1:1 with saline and vortexed for 30 minutes. When fully suspended, we injected 20 μL of CFA into one hindpaw. Heat thresholds were measured before the injection (baseline) and 3 days after using the Hargreaves test.
# [10] = target: T2, ALPHA-2A ADRENERGIC RECEPTOR (Homo sapiens (Human), UniProt P08913); experiment: Gi recruitment (G protein); assay type: cell-based; settings: Gi recruitment, Tables 7-9
# [11] = target: T2, ALPHA-2A ADRENERGIC RECEPTOR; experiment: Arrestin recruitment; assay type: cell-based; settings: Tables 7-9
# [12] = target: T1, human α2AAR; experiment: Gαi G protein activation, BRET biosensor assay in HEK293T cells
# Experimental: Bioluminescense resonance energy transfer. G protein mediated activation of human α2AAR and D2long was monitored with Gαi1-RLucII (71, 72) together with Gβ1 and Gγ1-GFP10. Arrestin recruitment was performed by enhanced bystander BRET using CAAX-rGFP and β-arrestin-2-RLucII as biosensors (all biosensors are provided from M. Bouvier, Université de Montréal, Canada) (71, 73) in the presence of GRK2 as described (66, 74). In brief, HEK293T cells were transfected with a total amount of 3.3 μg DNA per 10^6 cells using linear polyethyleneimine (PEI, Polysciences, 3:1 PEI:DNA ratio) and transferred into 96-well half-area plates (Greiner, Frickenhausen, Germany) at a density of 10,000 cells per well and incubated for 48 hrs. Medium was exchanged with PBS (Hank's balanced salt solution) and cells were stimulated with ligands at 37° C. for 10 min for Gαi stimulation or arrestin recruitment, respectively.
# [13] = target: T1, human α2AAR; experiment: β-arrestin-2 recruitment, BRET biosensor assay in HEK293T cells
# [14] = mouse, plasma, ip, I.P. 10 mg/kg
# T2 sequence (P08913 whole entry): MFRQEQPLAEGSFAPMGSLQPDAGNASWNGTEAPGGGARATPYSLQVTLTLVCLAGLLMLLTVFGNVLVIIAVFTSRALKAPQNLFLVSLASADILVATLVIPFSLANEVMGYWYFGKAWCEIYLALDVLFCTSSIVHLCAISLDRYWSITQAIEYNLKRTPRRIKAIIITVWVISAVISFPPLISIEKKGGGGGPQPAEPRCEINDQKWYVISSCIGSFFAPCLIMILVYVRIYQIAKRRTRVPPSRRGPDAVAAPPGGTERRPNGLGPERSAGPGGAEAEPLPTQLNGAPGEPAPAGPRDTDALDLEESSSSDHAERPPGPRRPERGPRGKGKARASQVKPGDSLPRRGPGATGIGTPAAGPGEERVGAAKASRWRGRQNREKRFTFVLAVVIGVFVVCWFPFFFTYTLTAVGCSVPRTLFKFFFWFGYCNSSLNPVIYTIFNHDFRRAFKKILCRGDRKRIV
# T1 sequence (P08913 whole entry): as above
structure (smiles),measurement,setting,value
CN1CC[C@]23c4c5ccc(O)c4O[C@H]2[C@@H](O)C=C[C@H]3[C@H]1C5 [morphine],Constipation,[1],induced constipation
Cc1cccc([C@H](C)c2cnc[nH]2)c1C [dexmedetomidine],Gi signaling at Y431^7.43A,[2],essentially eliminated
same,AUC Brain,[3]; I.P. 30 μg/kg,285 ng·min/mL
same,Cmax Brain,[3]; I.P. 30 μg/kg,8 ng/mL
same,Sedation in rotarod test,[4],completely sedating; also recorded: complete sedation
same,Effect on body weight over 48 hours,[5],no effect on body weight
"Cc1cc2[nH]ncc2cc1-c1ccc(N)nc1 [Compound 2998, 5-(6-Methyl-1H-indazol-5-yl)pyridin-2-amine]",Ki,[6],180 ± 34 nM
same,"I2R binding, single point radioligand experiment",[7],no binding was seen
same,AUC Brain,[3]; I.P. 10 mg/kg,51700 ng·min/mL
same,Cmax Brain,[3]; I.P. 10 mg/kg,742 ng/mL
same,half-life,"[3]; mouse, brain, ip, I.P. 10 mg/kg, read-out: T ½ Brain (converted)",27.6 min
same,AUC,[3]; [14],3070 ng·h/mL
same,Cmax,[3]; [14],2710 ng/mL
same,half-life,"[3]; mouse, plasma, ip, I.P. 10 mg/kg, read-out: T ½ Plasma (converted)",24 min
same,Effect of atipamezole on the agonist's effect in SNI mice,"[8]; atipamezole 2 mg/kg, 15 minutes prior",not significant reversal; also recorded: partially reversed
same,Mechanical thresholds / anti-allodynic effect in SNI mice,[8]; systemic injection,exhibited anti-allodynic effects
same,Thermal latencies / anti-hyperalgesic effect in CFA model,[9],did not
same,EC50,[10]; read-out: G protein EC50,89 nM
same,Emax,[10]; read-out: G protein Emax (%),60%
same,Emax,[11],< 10%
same,EC50,"[12]; Gαi EC50, BRET biosensor, HEK293T, human α2AAR",73 ± 14 nM
same,Emax,"[12]; HEK-293T, read-out: Gαi Emax",61 ± 3%
same,EC50,[13],98 ± 32 nM
same,Emax,"[13]; HEK-293T, read-out: β-arrestin-2 Emax",8 ± 3%

# Source: patent publication US20250032476A1, “ALPHA-2A ADRENERGIC RECEPTOR MODULATORS AND USES THEREOF” (The Regents of the University of California, priority 2021, published 2025)
